Data published in US12006503B2, “Fusion proteins and methods thereof” (The Trustees of Columbia University in the City of New York, priority 2012, dated 2024).
Entries after “also recorded” stand apart in the source; their conditions may differ. One block for each compound: values may come before it.

What was measured:
[1] = test system: Ink4A;Arf-/- astrocytes in immunodeficient mice; assay: Subcutaneous tumor xenograft formation by lentivirus-transduced Ink4A;Arf-/- astrocytes; assay type: in vivo, mouse
Source text: FIG. 3B are photomicrographs showing of immunofluoresence staining of tumors from mice injected with Ink4A; Arf−/− astrocytes expressing FGFR3-TACC3 showing positivity for glioma-specific (Nestin, Oig2 and GFAP) and proliferation markers (Ki67 and pHH3). Sub-cutaneous tumors were generated by Ink4A; Arf−/− astrocytes expressing FGFR-TACC fusions.
(§1) Subcutaneous xenografts and drug treatment. […] For experiments with FGFR inhibitors, mice carrying ˜200-300 mm 3 subcutaneous tumors derived from Ink4A; Arf−/− astrocytes were randomized to receive 50 mg/kg PD173074 in 0.05 M lactate buffer (pH 5) or an equal volume of lactate buffer by oral gavage. Treatment was administered for three cycles consisting of four consecutive days followed by two days of rest. […] Data are expressed as mean±SE.

[2] = test system: Rat1A cells and Ink4A;Arf-/- astrocytes; assay: Quantitative analysis of chromosome segregation defects in mitoses; assay type: cell-based
Source text: Quantitative analysis of metaphase spreads for chromosome segregation defects in Ink4A; ARF−/− astrocytes expressing vector control or FGFR3-TACC3 (upper panel). Microscope imaging analysis of chromosome segregation defects in Ink4A; Arf−/− astrocytes expressing FGFR3-TACC3 or vector control. Representative images of cells with chromosome missegregation. Arrows point to chromosome misalignments, lagging chromosomes and chromosome bridges.
Confocal microscopy imaging. For immunofluorescence of fixed cells, images were recorded with a Z-optical spacing of 0.25 μm using a Nikon AIR MP and a 60×1.3 oil objective and analyzed using ImageJ software (National Institute of Health). For live-cell analyses, Rat1A cells infected with pLNCX-H2B retrovirus and transduced with lentiviral vector or FGFR3-TACC3 fusion were seeded in glass bottom dishes in phenol red free DMEM and followed by time-lapse microscopy using the Nikon AIR MP biostation at 37° C. and 5% CO2/95% air. Images with a Z-optical spacing of 1 μm were recorded every 4 min for 8 h. Images of unchallenged mitosis from early prophase until cytokinesis were processed using ImageJ software (National Institute of Health). The time-point of nuclear envelope breakdown (NEB) was defined as the first frame showing loss of smooth appearance of chromatin and anaphase was the first frame when chromosome movement towards the poles became apparent. […]

Rat1 = assay: Soft agar colony assay, Rat1 cells; assay type: cell-based, rat; conditions: Rat1 cells transduced with the construct
Source text: FGFR1-TACC1 and FGFR3-TACC3 induce anchorage-independent growth in Rat1A fibroblasts. The number of soft agar colonies was scored from triplicate samples 14 days after plating. Representative microphotographs are shown.

[3] = test system: Rat1A cells expressing FGFR3-TACC3 fusion; assay: Growth of Rat1A cells expressing FGFR3-TACC3 after FGFR3 shRNA lentivirus (trypan blue exclusion); assay type: cell-based, rat; conditions: lentiviral shRNA
Method: At the left, parallel cultures of GSC-1123 cells were transduced in triplicate. Rat1A cells expressing FGFR3-TACC3 fusion were transduced with lentivirus expressing a non-targeting shRNA (Ctr) or shRNA sequences targeting FGFR3 (sh2, sh3, sh4). Five days after infection cells were plated at density of 2λ10^4 cells/well in triplicate and the number of trypan blue excluding cells was scored at the indicated times. […] Values are the means±standard deviation (n=3). At the right sided figure, GSC-1123 cells were transduced with lentivirus expressing a non-targeting shRNA (sh-Ctr) or lentivirus expressing sh-3 and sh-4 sequences targeting FGFR3. Western Blot analysis was performed on parallel cultures using the FGFR3 antibody to the detect FGFT3-TACC3 fusion protein. β-actin is shown as a control for loading.
Cloning and Lentiviral production. Lentiviral expression vectors, pLOC-GFP (Open Biosystems) and pTomo-shp53, were used to clone FGFR3, TACC3, FGFR3-TACC3, FGFR3-TACC3-K508M, and FGFR1-TACC1. pTomo-shp53 was a gift of Inder Verma and Dinorah Friedman-Morvinski (Salk Institute, San Diego). The FGFR3-TACC3-K508M mutant was generated using the Phusion Site Direct Mutagenesis kit (NEB, USA). MISSION shRNAs clones (pLK0.1 lentiviral expression vectors) against FGFR3 were purchased from Sigma. The hairpin sequences targeting the FGFR3 gene are—

[4] = test system: GIC-1123 tumor xenografts; assay: Subcutaneous GIC-1123 xenografts treated with JNJ-42756493; conditions: 12 mg/kg, oral
Method: After tumor establishment (arrow) mice were treated with vehicle or JNJ-42756493 (12 mg/kg) for 14 days. Values are mean tumor volumes±SD, (n=9 mice per group). P-value of the slope calculated from the treatment starting point (arrow) is 0.04.
Subcutaneous xenografts and drug treatment. GIC-1123 cells (5×10^5) were injected subcutaneously in the flank of athymic nude (Nu/Nu) mice (Charles River Laboratories). Mice carrying ˜200 mm 3 subcutaneous tumors were randomized to receive 12 mg/kg JNJ-42756493 or DMSO in 1% Tween 80 by oral gavage. Tumor diameters were measured with caliper and tumor volumes estimated using the formula: 0.5×length×width 2. Data are mean±SD of nine mice in each group. Mice were sacrificed when tumors in the control group reached the maximal size allowed by the IACUC Committee at Columbia University.

activated FGFR = conditions: cited from earlier work
[5] = test system: mouse astrocytes expressing FGFR3-TACC3-KD or the empty vector; conditions: cells expressing KD mutant fusion or empty vector
Method: (§2) Cell culture and cell growth assay. GIC-1123 gliomaspheres were cultured in neurobasal medium (Invitrogen) supplemented with B27, N2 (Invitrogen), EGF and FGF2 (20 ng/ml, PeproTech). Mouse astrocytes Ink4A-Arf−/− were cultured in DMEM supplemented with 10% Fetal Bovine Serum. Cells were seeded at 1,000 cells/well in a 96-well plate and treated with JNJ-42756493. After 72 hours cell viability was assessed using the 3-(4,5-dimethythiazol-2-yl)-2,5-diphenyl tetrazolium bromide (MTT) assay. Data are mean±SEM of six replicates. Experiments were performed three times.

[6] = test system: human glioma stem cells GIC-1123; conditions: GIC-1123, 72 hours, MTT
Method: as §2

[7] = test system: mouse astrocytes expressing FGFR3-TACC3; conditions: mouse astrocytes expressing FGFR3-TACC3, 72 hours, MTT
Method: as §2

[8] = test system: nonclinical models with FGFR aberrations; conditions: squamous NSCLC, gastric, breast, HCC, endometrial, bladder; cited from earlier work
[9] = test system: all members of the FGFR family; conditions: cited from earlier work
[10] = test system: recurrent GBM harboring FGFR3-TACC3 fusions; assay: Phase I trial of JNJ-42756493 in patients with recurrent GBM harboring FGFR3-TACC3 (MRI, RANO, volumetry)
Source text: (A) Post-gadolinium T1 weighted images show the target lesion on the right parietal lobe. […] (B) Analysis of sum of product diameters (SPD) before and during the anti-FGFR treatment (RANO criteria). (C) Analysis of tumor volume (cm3) before and during the anti-FGFR treatment. […] (D) Perfusion images at baseline and after 20 days of anti-FGFR treatment. rCBV (relative cerebral blood volume). Post-gadolinium T1 weighted images with color overlay of rCBV are shown. […] (F) Analysis of sum of product diameters (SPD) before and during the anti-FGFR treatment.
MRI imaging and evaluation of clinical response to JNJ-42756493. Baseline and follow-up imaging assessments were performed on 1.5 Tesla MR imaging systems, including at least axial T1 weighted images before gadolinium injection, Axial or 3D FLAIR (Fluid-Attenuated Inversion-Recovery), dynamic susceptibility contrast MR perfusion (0.1 mmol/kg of gadobutrol), axial and 3D T1 weighted images after gadolinium injection. Tumor response was assessed according to the RANO criteria (33). Contrast-enhancing lesion volume was assessed with the help of a semi-automated volumetry tool (SegmentiX), based on shape-detection and thresholding, with control and manual correction of edges when necessary. Since exclusion of cystic or necrotic portions of the lesion may be affected by operator subjectivity, both were included for volumetric and axial measurements.
DSC (dynamic susceptibility contrast) perfusion datasets were processed with vendor's software suite (Neuroperfusion, Philips), including coregistration and rCBV (relative cerebral blood volume) parametric maps generation with 3 different algorithms (Gamma-variate fitting, Arterial Input Function based deconvolution and Model Free).

[11] = test system: intracranial luciferase-expressing FGFR3-TACC3-driven glioma xenografts; assay: Orthotopic (intracranial) FGFR3-TACC3-driven glioma xenografts, drug treatment, survival; assay type: in vivo, mouse; conditions: 50 mg/kg, oral, 20 days
Source text: Mice were monitored daily and sacrificed when neurological symptoms appeared.

FGFR3-TACC3 = target: T1, FGFR3-TACC3 (Homo sapiens, UniProt P22607); assay: Western blot of constitutive phosphorylation of FGFR3-TACC3 and FRS2 in Ink4A;Arf-/- astrocytes; assay type: cell-based, mouse; conditions: 100 nM PD173074, Ink4A;Arf-/- astrocytes
T1 construct: a protein of 1,048 amino acids resulting from the fusion of a FGFR3 amino-terminal portion of residues 1-758; expressed in transfected cells; host or cells: Ink4A;Arf-/- mouse astrocytes, lentiviral transduction (pLOC-GFP / pTomo vectors)
Method: Ink4A; Arf−/− astrocytes transduced with empty lentivirus or a lentivirus expressing FGFR3-TACC3 or FGFR3-TACC3-K508M were left untreated (0) or treated with 100 nM of the FGFR inhibitor PD173074 for the indicated times. Phospho-proteins and total proteins were analyzed by Western blot using the indicated antibodies.

[12] = test system: Rat1A cells and Ink4A;Arf-/- astrocytes; assay: Premature sister chromatid separation (PMSCS) in metaphase spreads; assay type: cell-based; conditions: cells expressing FGFR3-TACC3
Source text: Correction of premature sister chromatid separation (PMSCS) by PD173470 in cells expressing FGFR3-TACC3. Panels show representative metaphase spreads. DNA was stained by DAPI.
Left, panels show representative metaphase spreads. Right, quantitative analysis of metaphases with loss of sister chromatid cohesion. The number of mitosis with PMSCS in Ink4A; Arf−/− astrocytes was scored in at least 100 methaphases for each condition in three independent experiments. The number of mitosis with PMSCS was scored in triplicate samples of Rat1A cells. FIG. 13D is a graph showing nocodazole was added for the indicated durations to Rat1A-H2B-GFP cells transduced with the specified lentiviruses. The mitotic index at each time point was determined by quantitating the H2B-GFP-positive cells in mitosis at each time point. Data are presented as average and standard deviation (n=3).
(§3) Karyotype analysis. Cultured cells were colcemid (20 ng/ml) treated for 90 minutes before harvesting for karyotopic analysis as detailed in Extended Experimental procedures. At least one hundred cells in metaphase were examined for chromosome count. PMSCS was scored in cells where a majority of the sister chromosomes were no longer associated. Two-tailed unpaired t-tests with Welch's correction were performed for comparison of means analysis.

[13] = test system: glioma xenografts of FGFR3-TACC3 transformed astrocytes; assay: Subcutaneous glioma xenografts of FGFR3-TACC3 transformed astrocytes, drug treatment; assay type: in vivo, mouse; conditions: 50 mg/kg, oral gavage
Method: as §1

Rat1A cells = assay: Karyotype analysis (chromosome counts, aneuploidy) of Rat1A cells; assay type: cell-based, rat; conditions: five days
Method: Distribution of chromosome counts of cells arrested in mitosis and analyzed for karyotypes using DAPI. Chromosomes were counted in 100 metaphase cells for each condition to determine the ploidy and the diversity of chromosome counts within the cell population. FGFR3-TACC3 fusion induces aneuploidy.
The upper panel is a karyotype analysis of Rat1A cells transduced with control or FGFR3-TACC3 lentivirus and treated with vehicle (DMSO) or PD173470 (100 nM) for five days.
as §3
Karyotypic Analysis. The colcemid treated cells were trypsinized, centrifuged for 7 minutes at 200×g, and the cell pellet re-suspended in warmed hypotonic solution and incubated at 37° C. for 13 minutes. The swollen cells were then centrifuged and the pellet re-suspended in 8 ml of Carnoy's fixative (3:1 methanol:glacial acetic acid). […] Slides were stained with DAPI and metaphases were analyzed under a fluorescent microscope.

Compound: FGFR1-TACC1: fusion protein in which the TK domain of FGFR1 is fused upstream of the TACC domain of TACC1 (SEQ ID NO: 150)
- mice with tumors after subcutaneous injection of astrocytes expressing the fusion protein ([1]; Ink4A;Arf-/- astrocytes, immunodeficient mice): 100%
- Subcutaneous tumor xenografts (tumors formed/injections) ([1]; Ink4Arf-/- astrocytes expressing the construct): 8/8
- increase of chromosomal segregation errors versus control cells [2]: three to five fold increase
- soft agar colonies (Rat1): 225.3 ± 10.0

Compound: sh-4: MISSION shRNA hairpin targeting the FGFR3 gene, SEQ ID NO: 184 (guide GCACAACCTCGACTACTACAA; the letters are possibly those of the target site)
- growth of cells ectopically expressing FGFR3-TACC3 after FGFR3 silencing [3]: reverted the growth rate

- IC50 [6]: 1.55 nM
Compound: COc1cc(OC)cc(N(CCNC(C)C)c2ccc3ncc(-c4cnn(C)c4)nc3c2)c1 [JNJ-42756493]
- growth of GIC-1123 tumor xenografts [4]: potent growth inhibition
- tumor regression of GIC-1123 xenografts ([4]; after two weeks): statistically significant tumor regression
- concentration inhibiting tyrosine phosphorylation of activated FGFR (activated FGFR): nanomolar concentrations
- sensitivity to FGFR inhibition [5]: but not cells expressing the KD mutant fusion or the empty vector
- IC50 [7]: 3.03 nM
- antitumor activities in nonclinical models with FGFR aberrations [8]: potent antitumor activities
- IC50 values for all members of the FGFR family [9]: low nanomolar range
- change of the enhancing parenchyma of the tumor mass ([10]; Patient 1): −44%
- duration of stabilization ([10]; Patient 1): 115 days
- toxicity observed during treatment ([10]; Patient 1): grade I hyperphosphatemia, asthenia, dysgueusia, dry mouth, keratitis, and grade II nail changes
- tumor response on MRI (RANO sum of product diameters, volumetry) ([10]; Patient 1, 12 mg/day, 7 days on/7 days off): stabilization of the tumor; also recorded: stable disease; also recorded: disease stabilization
- extent of tumor vascularity (rCBV) ([10]; Patient 1, MR perfusion): marked reduction
- clinical status ([10]; Patient 1, after 3 weeks): marked clinical improvement
- time to best response ([10]; Patient 2): 104 days
- time to disease progression after start of anti-FGFR ([10]; Patient 2): 134 days
- toxicity observed during treatment ([10]; Patient 2): Grade I hyperphosphatemia, nail changes, and mucositis
- tumor response category ([10]; Patient 2): minor response
- clinical status ([10]; Patient 2, after 4 weeks): clinical improvement
- reduction of tumor size according to the RANO criteria ([10]; Patient 2, best response): 22%
- tumor reduction according to volumetry ([10]; Patient 2, best response): 28%

Compound: sh-3: MISSION shRNA hairpin targeting the FGFR3 gene, SEQ ID NO: 183 (guide GTTCCACTGCAAGGTGTACAG; the letters are possibly those of the target site)
- growth of cells ectopically expressing FGFR3-TACC3 after FGFR3 silencing [3]: reverted the growth rate

Compound: COc1cc(CCc2cc(NC(=O)c3ccc(N4C[C@@H](C)N[C@@H](C)C4)cc3)n[nH]2)cc(OC)c1 [AZD4547]
- survival of mice with intracranial FGFR3-TACC3 glioma [11]: markedly prolonged survival

- constitutive phosphorylation of the TK domain of FGFR3-TACC3 and of FRS2 (FGFR3-TACC3): abolished
Compound: CCN(CC)CCCCNc1ncc2cc(-c3cc(OC)cc(OC)c3)c(NC(=O)NC(C)(C)C)nc2n1 [PD173074]
- cohesion defect (premature sister chromatid separation) [12]: largely corrected
- cohesion defect (premature sister chromatid separation) ([12]; listed as PD173470): Correction
- tumor growth of FGFR3-TACC3 glioma subcutaneous xenografts [13]: potent growth inhibition
- distribution of chromosome counts (Rat1A cells; Rat1A expressing FGFR3-TACC3, 100 nM): restored the narrow distribution of chromosome counts
- rescue of the aneuploidy caused by FGFR3-TACC3 (Rat1A cells; Rat1A, 100 nM): over 80%
